Data: PubChem BioAssay AID344 (DTP/NCI, 2004)
Where “and” joins values, the source holds several entries; their conditions need not be identical. Identical values can stand only once. Inconclusive results and toxic doses are left out.

Tested on: mice, LPC-1 plasma cell tumor ip, median survival T/C
Assay: NCI In Vivo Anticancer Drug Screen. Data for tumor model Lieberman Plasma Cell No. 1 (LPC-1) (intraperitoneal) in unknown mice
Conditions: endpoint: median survival time, higher = longer survival
Description: The antitumor activity of compounds was measured in mice bearing transplantable tumors. Survival or tumor size were measured and the results are expressed as the measurement made in the treated group (T) divided by the measurement made in the vehicle treated control group (C). The tumor model used in this assay is Lieberman Plasma Cell No. 1 (LPC-1) (intraperitoneal) in unknown mice

[1] = dose: 180.0 mg/kg/injection, schedule: Q01DX028 (sc), vehicle: carboxymethylcellulose (CMC)

With `CS(=O)(=O)OCCN(CCOS(C)(=O)=O)c1ccc(C(=O)O)cc1` the T/C (dose: 20.0 mg/kg/injection, schedule: Q01DX028 (sc), vehicle: carboxymethylcellulose (CMC)) was 205 % of control, the T/C (dose: 40.0 mg/kg/injection, schedule: Q01DX028 (sc), vehicle: carboxymethylcellulose (CMC)) was 350 % of control and the T/C (dose: 55.0 mg/kg/injection, schedule: Q01DX028 (sc), vehicle: carboxymethylcellulose (CMC)) was 255 % of control. The T/C (dose: 80.0 mg/kg/injection, schedule: Q01DX028 (sc), vehicle: carboxymethylcellulose (CMC)) was 197 % of control, the T/C [1] was 105 % of control and the T/C (dose: 270.0 mg/kg/injection, schedule: Q01DX028 (sc), vehicle: carboxymethylcellulose (CMC)) was 89 % of control.

`CCN(CC)c1ccc2cc3ccc(=[N+](CC)CC)cc-3oc2c1` was tested, and the T/C (dose: 1.0 mg/kg/injection, schedule: Q01DX028 (sc), vehicle: methylcellulose (MC)) was 97 % of control, the T/C (dose: 2.0 mg/kg/injection, schedule: Q01DX028 (sc), vehicle: methylcellulose (MC)) was 93 % of control and the T/C (dose: 4.0 mg/kg/injection, schedule: Q01DX028 (sc), vehicle: methylcellulose (MC)) was 89 % of control. The T/C (dose: 8.0 mg/kg/injection, schedule: Q01DX028 (sc), vehicle: methylcellulose (MC)) was 87 % of control.

`CN(C)c1ccc(/C=C/c2ccnc3ccccc23)cc1` was tested, and the T/C (dose: 2.0 mg/kg/injection, schedule: Q01DX028 (sc), vehicle: carboxymethylcellulose (CMC)) was 95 % of control, the T/C (dose: 4.0 mg/kg/injection, schedule: Q01DX028 (sc), vehicle: carboxymethylcellulose (CMC)) was 100 % of control and the T/C (dose: 8.0 mg/kg/injection, schedule: Q01DX028 (sc), vehicle: carboxymethylcellulose (CMC)) was 95 % of control. For the same molecule, the T/C (dose: 16.0 mg/kg/injection, schedule: Q01DX028 (sc), vehicle: carboxymethylcellulose (CMC)) was 92 % of control, the T/C (dose: 23.0 mg/kg/injection, schedule: Q01DX028 (sc), vehicle: carboxymethylcellulose (CMC)) was 105 % of control and the T/C (dose: 32.0 mg/kg/injection, schedule: Q01DX028 (sc), vehicle: carboxymethylcellulose (CMC)) was 100 % of control. For the same molecule, the T/C (dose: 39.0 mg/kg/injection, schedule: Q01DX028 (sc), vehicle: carboxymethylcellulose (CMC)) was 97 % of control, the T/C (dose: 65.0 mg/kg/injection, schedule: Q01DX028 (sc), vehicle: carboxymethylcellulose (CMC)) was 100 % of control and the T/C (dose: 108.0 mg/kg/injection, schedule: Q01DX028 (sc), vehicle: carboxymethylcellulose (CMC)) was 95 % of control. For the same molecule, the T/C [1] was 95 % of control.

In the case of `COc1cc2cccnc2c2[nH]ccc(=O)c12`, the T/C (dose: 50.0 mg/kg/injection, schedule: Q01DX009 (sc), vehicle: saline) was 100 % of control, the T/C (dose: 100.0 mg/kg/injection, schedule: Q01DX009 (sc), vehicle: saline) was 92 % of control and the T/C (dose: 200.0 mg/kg/injection, schedule: Q01DX009 (sc), vehicle: saline) was 102 % of control. The T/C (dose: 400.0 mg/kg/injection, schedule: Q01DX009 (sc), vehicle: saline) was 104 % of control.

In the case of `COc1cc2c(c3c1c(=O)c1ccccc1n3C)C=CC(C)(C)O2`, the T/C (dose: 9.38 mg/kg/injection, schedule: Q03HX024 (oral), vehicle: steriod suspending solution) was 118 % of control, the T/C (dose: 18.0 mg/kg/injection, schedule: Q01DX021 (sc), vehicle: other) was 121 % of control and the T/C (dose: 18.0 mg/kg/injection, schedule: Q03HX008 (sc), vehicle: other) was 166 % of control. For the same molecule, the T/C (dose: 18.75 mg/kg/injection, schedule: Q03HX008 (ip), vehicle: steriod suspending solution) was 103 % of control, the T/C (dose: 18.75 mg/kg/injection, schedule: Q03HX024 (oral), vehicle: steriod suspending solution) was 118 % of control and the T/C (dose: 23.0 mg/kg/injection, schedule: Q01DX028 (sc), vehicle: other) was 154 % of control. The T/C (dose: 27.0 mg/kg/injection, schedule: Q03HX008 (sc), vehicle: other) was 280 % of control, the T/C (dose: 27.0 mg/kg/injection, schedule: Q03HX024 (sc), vehicle: other) was 178 % of control and the T/C (dose: 37.5 mg/kg/injection, schedule: Q01DX028 (oral), vehicle: other) was 105 % of control. For the same molecule, the T/C (dose: 37.5 mg/kg/injection, schedule: Q03HX008 (oral), vehicle: steriod suspending solution) was 118 % of control, the T/C (dose: 37.5 mg/kg/injection, schedule: Q03HX024 (oral), vehicle: steriod suspending solution) was 109 % of control and the T/C (dose: 40.0 mg/kg/injection, schedule: Q01DX021 (sc), vehicle: other) was 164 % of control. The T/C (dose: 40.0 mg/kg/injection, schedule: Q03HX008 (sc), vehicle: other) was 180 % of control, the T/C (dose: 40.0 mg/kg/injection, schedule: Q03HX024 (sc), vehicle: other) was 204 % of control and the T/C (dose: 60.0 mg/kg/injection, schedule: Q01DX021 (sc), vehicle: other) was 173 % of control. The T/C (dose: 60.0 mg/kg/injection, schedule: Q04DX003 (sc), vehicle: other) was 152 % of control, the T/C (dose: 70.0 mg/kg/injection, schedule: Q03HX024 (sc), vehicle: steriod suspending solution) was 112 % of control and the T/C (dose: 75.0 mg/kg/injection, schedule: Q01DX001 (ip), vehicle: steriod suspending solution) was 112 % of control. The T/C (dose: 75.0 mg/kg/injection, schedule: Q01DX001 (oral), vehicle: steriod suspending solution) was 96 % of control, the T/C (dose: 75.0 mg/kg/injection, schedule: Q01DX028 (oral), vehicle: other) was 108 % of control and the T/C (dose: 75.0 mg/kg/injection, schedule: Q03HX008 (oral), vehicle: steriod suspending solution) was 87 % of control. The T/C (dose: 75.0 mg/kg/injection, schedule: Q03HX024 (oral), vehicle: steriod suspending solution) was 150 % of control, the T/C (dose: 90.0 mg/kg/injection, schedule: Q01DX005 (sc), vehicle: other) was 150 % of control and the T/C (dose: 99.0 mg/kg/injection, schedule: Q01DX020 (oral), vehicle: saline) was 120 % of control. For the same molecule, the T/C (dose: 100.0 mg/kg/injection, schedule: Q01DX001 (sc), vehicle: steriod suspending solution) was 100 % of control, the T/C (dose: 142.0 mg/kg/injection, schedule: Q01DX001 (sc), vehicle: steriod suspending solution) was 104 % of control and the T/C (dose: 143.0 mg/kg/injection, schedule: Q03HX008 (sc), vehicle: steriod suspending solution) was 153 % of control. For the same molecule, the T/C (dose: 143.0 mg/kg/injection, schedule: Q03HX024 (sc), vehicle: steriod suspending solution) was 156 % of control, the T/C (dose: 145.0 mg/kg/injection, schedule: Q03HX024 (sc), vehicle: other) was 103 % of control and the T/C (dose: 150.0 mg/kg/injection, schedule: Q01DX001 (ip), vehicle: steriod suspending solution) was 100 % of control. The T/C (dose: 150.0 mg/kg/injection, schedule: Q01DX001 (oral), vehicle: steriod suspending solution) was 106 % of control and 112 % of control, the T/C (dose: 150.0 mg/kg/injection, schedule: Q01DX028 (oral), vehicle: other) was 100 % of control and the T/C (dose: 180.0 mg/kg/injection, schedule: Q01DX001 (sc), vehicle: other) was 154 % of control. The T/C (dose: 180.0 mg/kg/injection, schedule: Q01DX005 (sc), vehicle: other) was 171 % of control, the T/C (dose: 180.0 mg/kg/injection, schedule: Q04DX003 (sc), vehicle: other) was 173 % of control and the T/C (dose: 204.0 mg/kg/injection, schedule: Q03HX008 (sc), vehicle: steriod suspending solution) was 159 % of control. For the same molecule, the T/C (dose: 214.0 mg/kg/injection, schedule: Q01DX001 (sc), vehicle: steriod suspending solution) was 102 % of control, the T/C (dose: 214.0 mg/kg/injection, schedule: Q03HX024 (sc), vehicle: other) was 112 % of control and 121 % of control and the T/C (dose: 300.0 mg/kg/injection, schedule: Q01DX001 (oral), vehicle: steriod suspending solution) was 106 % of control. For the same molecule, the T/C (dose: 300.0 mg/kg/injection, schedule: Q## X008 (oral), vehicle: other) was 161 % of control, the T/C (dose: 320.0 mg/kg/injection, schedule: Q01DX001 (sc), vehicle: steriod suspending solution) was 104 % of control and the T/C (dose: 320.0 mg/kg/injection, schedule: Q03HX024 (sc), vehicle: other) was 118 % of control. The T/C (dose: 360.0 mg/kg/injection, schedule: Q01DX001 (sc), vehicle: other) was 152 % of control, the T/C (dose: 480.0 mg/kg/injection, schedule: Q01DX001 (sc), vehicle: steriod suspending solution) was 118 % of control and the T/C (dose: 528.0 mg/kg/injection, schedule: Q## X008 (sc), vehicle: steriod suspending solution) was 116 % of control. For the same molecule, the T/C (dose: 600.0 mg/kg/injection, schedule: Q01DX001 (ip), vehicle: steriod suspending solution) was 112 % of control, the T/C (dose: 600.0 mg/kg/injection, schedule: Q01DX001 (oral), vehicle: steriod suspending solution) was 120 % of control and the T/C (dose: 600.0 mg/kg/injection, schedule: Q## X024 (oral), vehicle: steriod suspending solution) was 86 % of control. For the same molecule, the T/C (dose: 800.0 mg/kg/injection, schedule: Q## X024 (sc), vehicle: steriod suspending solution) was 166 % of control, the T/C (dose: 1136.0 mg/kg/injection, schedule: Q## X008 (sc), vehicle: steriod suspending solution) was 108 % of control and the T/C (dose: 1712.0 mg/kg/injection, schedule: Q## X024 (sc), vehicle: steriod suspending solution) was 160 % of control. The T/C (dose: 2560.0 mg/kg/injection, schedule: Q## X008 (sc), vehicle: steriod suspending solution) was 172 % of control and the T/C (dose: 2560.0 mg/kg/injection, schedule: Q## X024 (sc), vehicle: steriod suspending solution) was 118 % of control.
